According to the supplement of paper PMC8920030:

What was measured:
Settings in all cases: growth mode: biofilm, 24 h; exposure time: 24 h
colistin [1] = compound: T1, CCC(C)CCCC(=O)N[C@@H](CCN)C(=O)N[C@H](C(=O)N[C@@H](CCN)C(=O)N[C@H]1CCNC(=O)[C@H]([C@@H](C)O)NC(=O)[C@H](CCN)NC(=O)[C@H](CCN)NC(=O)[C@H](CC(C)C)NC(=O)[C@@H](CC(C)C)NC(=O)[C@H](CCN)NC1=O)[C@@H](C)O [colistin]; experiment: minimum concentration of killing, 4-log CFU reduction of biofilm (MCK99.99); higher = more biofilm tolerance
Method: (§1)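 Clinical P. aeruginosa isolates were grown as static biofilms for 24 h at 37 °C in LB in half-area 96-well plates, then exposed for 24 h to colistin at 1, 4, 16, 64, 256 or […]. Surviving CFU were counted by spotting serial dilutions. MCK is the lowest tested concentration giving the stated log reduction in CFU versus an untreated control; '>1024' means the reduction was not reached at the top dose, and 1 is the lowest dose tested (≤1).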

colistin [2] = compound: T1, colistin; experiment: minimum concentration eradicating biofilm below detection limit (MCK-E); higher = more biofilm tolerance
Method: as §1

tobramycin [3] = compound: T2, NC[C@H]1O[C@H](O[C@H]2[C@H](O)[C@@H](O[C@H]3O[C@H](CO)[C@@H](O)[C@H](N)[C@H]3O)[C@H](N)C[C@@H]2N)[C@H](N)C[C@@H]1O [tobramycin]; experiment: minimum concentration of killing, 2-log CFU reduction of biofilm (MCK99); higher = more biofilm tolerance
Method: as §1, with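 “tobramycin” for “colistin”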

colistin [4] = compound: T1, colistin; experiment: minimum concentration of killing, 1-log CFU reduction of biofilm (MCK90); higher = more biofilm tolerance
Method: as §1

tobramycin [5] = compound: T2, tobramycin; experiment: minimum concentration of killing, 4-log CFU reduction of biofilm (MCK99.99); higher = more biofilm tolerance
Method: as §1, with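 “tobramycin” for “colistin”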

tobramycin [6] = compound: T2, tobramycin; experiment: minimum concentration of killing, 1-log CFU reduction of biofilm (MCK90); higher = more biofilm tolerance
Method: as §1, with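 “tobramycin” for “colistin”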

colistin [7] = compound: T1, colistin; experiment: minimum concentration of killing, 2-log CFU reduction of biofilm (MCK99); higher = more biofilm tolerance
Method: as §1

tobramycin [8] = compound: T2, tobramycin; experiment: minimum concentration eradicating biofilm below detection limit (MCK-E); higher = more biofilm tolerance
Method: as §1, with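 “tobramycin” for “colistin”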

## Pseudomonas aeruginosa clinical isolate F2020
Colistin [1]
  minimum concentration of killing: 64 µg/mL
Colistin [2]
  minimum concentration eradicating biofilm below detection limit: 256 µg/mL
Tobramycin [3]
  minimum concentration of killing: 16 µg/mL
Colistin [4]
  minimum concentration of killing: 16 µg/mL
Tobramycin [5]
  minimum concentration of killing: 256 µg/mL
Tobramycin [6]
  minimum concentration of killing: 16 µg/mL
Colistin [7]
  minimum concentration of killing: 64 µg/mL
Tobramycin [8]
  minimum concentration eradicating biofilm below detection limit: 1020 µg/mL
